Laboratory results taken from patent US5089516A, “1-phenyl-3,5-pyrazolidinedione hydroxystyrene compounds which have tyrosine kinase inhibiting activity” (Kanegafuchi Kagaku Kogyo Kabushiki Kaisha, priority 1987, dated 1992).
≈ marks a conversion by molar mass, not a printed value.

Legend:
[1] = test system: Staphylococcus aureus IFO 12732; assay: Antibacterial activity (MIC) against Staphylococcus aureus IFO 12732; type: cell-based; conditions: IFO12732, 37° C., 18 to 20 hours
Description: (§1) The antibacterial activity against Gram-positive bacteria of the compound of the present invention was measured according to a standard method of Nippon Kagaku Ryoho Gakkai [Nippon Kagaku Ryoho Gakkaishi (Journal of the Chemical therapy of Japan), 29, 76(1981)].
(§2) As for gram-positive bacteria, after cultivation in Meuller Hinton broth medium (made by Difco Co., Ltd.), there was prepared a bacterial suspension for inoculation containing about 10^6 of the bacteria per 1 ml of the Meuller Hinton broth medium. On the other hand, the test compound was added to Mueller Hinton agar medium (made by Difco Co., Ltd.) so as to give agar plate medium containing test samples which are twofold serial diluted. Then, the above-mentioned bacterial suspension for inoculation was streaked to each agar medium for about 2 cm with a looped nichrome wire (inner diameter: about 1 mm).
(§3) After that the each agar plate medium was cultured at 37° C. for 18 to 20 hours, the growth of the test bacteria was determined.

[2] = test system: Micrococcus luteus IFO 13867; assay: Antibacterial activity (MIC) against Micrococcus luteus IFO 13867; type: cell-based; conditions: IFO13867, 37° C., 18 to 20 hours
Description: as §1, §2, §3

[3] = target: T1, reverse transcriptase derived from Moloney-Murine Leukemia Virus (M-MLV) (Moloney murine leukemia virus, UniProt P03355); assay: Inhibiting activity against reverse transcriptase derived from M-MLV; type: biochemical; conditions: read-out: Inhibition rate (reverse transcriptase derived from M-MLV); for inhibition at 1 µM: 1 μM in the reaction mixture; for inhibition at 10 µM: 10 μM in the reaction mixture
T1 construct: reverse transcriptase derived from Moloney-Murine Leukemia Virus; purchased Pharmacia K. K
Description: There was found the following point by using reverse transcriptase derived from Moloney-Murine Leukemia Virus (hereinafter referred to as "M-MLV").
The compound of the present invention was dissolved in DMSO to give a 100 mM solution thereof. Then, the solution was diluted with distilled water containing DMSO to give a solution of the test compound having a defined concentration. A mixed ratio of DMSO and distilled water was adjusted so that the concentration of DMSO at this time is 10% by volume and a final concentration of DMSO at the beginning of a reaction is 1% by volume.
The thus prepared solution of the test compound was mixed with a solution containing 50 mM of Tris--HCl buffer (pH 8.3), 8 mM of MgCl2, 30 mM of NaCl, 50 mM of dithiothreitol (made by Wako Pure Chemical Industries Ltd.), 0.2 mM of thymidine-5'-triphosphate (made by Pharmacia K. K.) and 6 U/ml of reverse transciptase derived from M-MLV (made by Pharmacia K. K.), and preincubated at 37° C. for 30 minutes. After there was added thereto 10 μg/ml of polyadenylic acid (made by PL Biochemicals Co., Ltd.), 0.01 U/ml of oligodeoxy thymidylic acid (made by Pharmacia K. K.) and 10 μCi/ml of [methyl-^3 H] thymidine-5'-triphosphate (made by Amersham Japan Co., Ltd., 47 Ci/mmol) to give a reaction mixture, the mixture was further incubated at 37° C. for 30 minutes, followed by cooling with ice to stop the reaction.
The radioactivity incorporated into deoxyribonucleic acids was measured according to the method of Linteril et al (Science 170, 447 to 449 (1967)). A defined volume of the reaction mixture was soaked into DE-81 filter paper (made by Whatman Ltd.), the filter paper was washed with 5% by weight of Na2 HPO4 solution for three times, and with distilled water and ethanol successively, and then dried. Radioactivity contained in the filter paper was measured by liquid scintillation counter to give the each radioactivity of the test solution groups.
On the other hand, the same procedure as above was carried out using DMSO-distilled water without the test compound instead of using the test solution, to give the value of radioactivity of a control group.
Reverse transcriptase derived from M-MLV inhibition rate (%) was calculated by the following equation. [formula]

[4] = test system: Bacillus subtilis IFO 3134; assay: Antibacterial activity (MIC) against Bacillus subtilis IFO 3134; type: cell-based; conditions: IFO3134, 37° C., 18 to 20 hours
Description: as §1, §2, §3

[5] = test system: antigen-induced airway constriction; assay: Inhibitory activity against antigen-induced airway constriction in actively sensitized guinea pigs; type: in vivo; conditions: Cavia porcellus, read-out: Inhibition rate (airway constriction)
Description: (3) Inhibitory activity against antigen-induced airway constriction in actively sensitized guinea pigs
That is, the sensitized guinea pigs (5 guinea pigs/group) were provided with artificial respiration by inserting a tracheal cannula under urethane anesthesia (1.5 g/kg body weight, intraperitoneal administration), and then, gallamine at 1 mg/kg body weight was injected intravenously to stop spontaneous respiration of the guinea pigs. Inhalation of 0.5% aqueous solution of ovalbumin was conducted using a nebulizer for 1 minute to increase antigen-induced airway constriction, at the same time, airway pressure was recorded through a transducer. Test compound was administered into jugular vein (i.v.) of the guinea pig 3 minutes before the antigen inhalation or administered orally (p.o.) 2 hours before the antigen inhalation. As a positive control compound, theophylline which was a drug for anti-asthma was used. The effect of the compound was estimated by calculating the maximum value of airway constriction (%) in comparison with the control group, according to the following equation. [formula]

[6] = test system: Nycobacterium smegmatis ATCC 607; assay: Antibacterial activity (MIC) against acid-fast bacteria; type: cell-based; conditions: 37° C., 40 to 42 hours
Description: As for acid-fast bacteria, after cultured in glycerol broth medium, there was prepared a bacterial suspension for inoculation containing about 10^6 of the bacteria per 1 ml of the medium. On the other hand, there were prepared some glycerol Czapek agar plating media with adding the test compounds, and thereto the bacterial suspension for inoculation was streaked.

[7] = test system: passive cutaneous anaphylaxis (PCA) reaction; assay: Inhibitory activity against homologous PCA reaction in rats; type: in vivo, male Wistar rats; conditions: Rattus norvegicus, 100 mg/kg, oral, 1 hour before antigen, read-out: Inhibition rate (PCA reaction)
Description: (1) Inhibitory activity against homologous PCA reaction in rats
Antiserum was prepared according to I. Mota [Immunology, 7, 681(1964)]and the PCA reaction was conducted according to Maruyama et al. [Folia Pharmacologica Japonica, 74, 179(1978}].
An ovalbumin solution dissolved in physiological saline (2 mg/ml) was injected intramuscularly into both thighs of male Wistar rats weighing 200 to 260 g in a volume of 0.5 ml/100 g body weight, and pertussis vaccine (Bordetella pertussis, 2×10^10 /ml/ Chiba Serum Institute) was intraperitoneally administered at 1 ml/rat. Twelve days after sensitization, blood was taken from posterior aorta under ether anesthesia and serum was separated and stored at -80° C.
In each group, 4 male Wistar rats weighing 180 to 210 g were used. Back of the rats was shaved and reach 0.05 ml of antiserum diluted 32 times with physiological saline was injected intradermally at four sites on the back. After 48 hours, 1 ml of a mixture of ovalbumin (2 mg/ml) as an antigen and Evans blue (10 mg/ml) in the volume ratio of 1 : 1, which was dissolved in physiological saline was injected intravenously into the tail. Thirty minutes later, the rats were bled to death under ether anesthesia and the back skin of the rats was removed. The blue-dyed area formed by pigment exudation was measured and an inhibition rate (%) was calculated as compared with control according to the following equation. [formula]
A test compound suspended in a 2.5 % aqueous solution of gum arabic containing 0.2 % Tween 80 was administered orally in a volume of 0.5 m:/100 g body weight 1 hour before the injection of antigen. To the control group, only the vehicle was administered. Tranilast which was a positive control compound was administered orally 30 minutes before the injection of antigen.

[8] = iv, 3 minutes before antigen inhalation

Row | Structure (SMILES) | inhibition at 1 µM [3] [%] | inhibition in vivo at 1 mg/kg [5, 8] [%] | inhibition at 10 µM [3] [%] | MIC [6] [µg/mL] | inhibition in vivo at 100 mg/kg [7] [%] | also measured
1 | O=C1NC(=S)SC1=Cc1cc(Cc2ccccc2)c(O)c(Cc2ccccc2)c1 [Compound 2] | 95 | – | – | – | – | MIC [1]: 12 µg/mL (≈ 28.7 µM); MIC [2]: ≤ 6 µg/mL; MIC [4]: ≤ 6 µg/mL
2 | O=C1NC(=S)SC1=Cc1cc(O)c(O)c(CSc2ccccc2)c1 [Compound 7] | 98 | 25 | – | – | – | –
3 | O=C1NC(=S)SC1=Cc1cc(CSc2ccccc2)c(O)c(OCc2ccccc2)c1 [Compound 8] | 98 | 43 | – | – | – | –
4 | CCCCOc1cc(C=C2SC(=S)NC2=O)cc(CSc2ccccc2)c1O [Compound 9] | 73 | 20 | – | – | – | –
5 | CCCCOc1cc(C=C2SC(=S)NC2=O)cc(Cc2ccccc2)c1O [Compound 10] | – | – | 61 | – | – | –
6 | O=C1Nc2ccccc2C1=Cc1cc(O)c(O)c(CSc2ccccc2)c1 [Compound 11] | 94 | 52 | – | – | – | MIC [1]: 25 µg/mL (≈ 66.6 µM); MIC [2]: 12 µg/mL (≈ 32 µM); inhibition in vivo at 30 mg/kg ([5]; po, 30 mg/kg, 2 hours before antigen inhalation): 26%; MIC [4]: ≤ 6 µg/mL
7 | O=C1NN(c2ccccc2)C(=O)C1=Cc1cc(Cc2ccccc2)c(O)c(Cc2ccccc2)c1 [Compound 20] | – | – | 97 | – | – | MIC [1]: 100 µg/mL (≈ 217 µM); MIC [2]: ≤ 50 µg/mL; MIC [4]: 50 µg/mL (≈ 109 µM)
8 | O=C1NN(c2ccccc2)C(=O)C1=Cc1cc(O)c(O)c(Cc2ccccc2)c1 [Compound 24] | 91 | – | – | – | – | –
9 | O=C1N=C(NCc2ccccc2)SC1=Cc1cc(Cc2ccccc2)c(O)c(Cc2ccccc2)c1 [Compound 26] | – | 68 | 76 | – | – | –
10 | O=C1N=C(NCc2cccs2)SC1=Cc1cc(CSc2ccccc2)c(O)c(OCc2ccccc2)c1 [Compound 31] | – | – | 61 | ≤ 6 | – | –
11 | CC(C)c1cc(C=C2SC(NCc3ccccc3)=NC2=O)cc(C(C)C)c1O [Compound 33] | – | – | – | ≤ 15 | 50 | inhibition in vivo at 2 mg/kg ([5]; iv, 2 mg/kg, 3 minutes before antigen inhalation): 26%
12 | CC(C)c1cc(C=C2SC(NCc3ccc(F)cc3)=NC2=O)cc(C(C)C)c1O [Compound 35] | – | – | – | 15 (≈ 36.4 µM) | 43 | –
13 | CC(C)c1cc(C=C2SC(NCc3ccc(Cl)c(Cl)c3)=NC2=O)cc(C(C)C)c1O [Compound 37] | – | 21 | – | – | 21 | –
14 | Cc1ccc(CNC2=NC(=O)C(=Cc3cc(C(C)C)c(O)c(C(C)C)c3)S2)cc1 [Compound 39] | – | 59 | – | – | 65 | –
15 | CC(C)c1cc(C=C2SC(NCc3ccc(S(N)(=O)=O)cc3)=NC2=O)cc(C(C)C)c1O [Compound 41] | – | – | – | 25 (≈ 52.8 µM) | 25 | MIC [1]: 50 µg/mL (≈ 106 µM); MIC [4]: 25 µg/mL (≈ 52.8 µM)
16 | CC(C)c1cc(C=C2SC(NCc3ccc(N)cc3)=NC2=O)cc(C(C)C)c1O [Compound 42] | – | – | 50 | ≤ 15 | – | inhibition in vivo at 5 mg/kg ([5]; iv, 5 mg/kg, 3 minutes before antigen inhalation): 33%
